Experiments:
Experiment in all cases: biochemical
Parameters in all cases: KINOMEscan competition binding panel (Eurofins DiscoverX), single concentration, percent inhibition
Settings in all cases: read-out: 15 at 1 µM % inhibition
MERTK = MERTK (Homo sapiens, UniProt Q12866)
Protocol: (§1) KinomeScan® Assay on 7 and 15 was performed as previously described by EuroFins DiscoverX [24]. GSK114 (7) and 15 were submitted for a KINOMEscan® assay to explore the selectivity profile across >400 human kinases at a compound concentration of 1 µM. […] GSK114 (7) is a narrow-spectrum TNNi3K inhibitor but has some potent off-targets including GAK which has been previously reported for this chemotype. […] If utilized together this set of compounds could be useful to investigate TNNi3K biology.

ERK4 = target: T1, ERK4 (Homo sapiens, UniProt P31152)
T1 construct: gene MAPK4
Protocol: as §1

[1] = target: T2, ABL1(M351T)-phosphorylated (Homo sapiens, UniProt P00519, M351T)
T2 construct: phosphorylated
Protocol: as §1

DDR1 = DDR1 (Homo sapiens, UniProt Q08345)
Protocol: as §1

EPHA2 = EPHA2 (Homo sapiens, UniProt P29317)
Protocol: as §1

MLCK = target: T3, MLCK (Homo sapiens, UniProt Q32MK0)
T3 construct: gene MYLK3
Protocol: as §1

PIP5K2B = target: T4, PIP5K2B (Homo sapiens, UniProt P78356)
T4 construct: gene PIP4K2B
Protocol: as §1

RET(M918T) = RET(M918T) (Homo sapiens, UniProt P07949, M918T)
Protocol: as §1

PIM3 = PIM3 (Homo sapiens, UniProt Q86V86)
Protocol: as §1

MUSK = MUSK (Homo sapiens, UniProt O15146)
Protocol: as §1

[2] = target: T5, ABL1(F317I)-nonphosphorylated (Homo sapiens, UniProt P00519, F317I)
T5 construct: nonphosphorylated
Protocol: as §1

TEC = TEC (Homo sapiens, UniProt P42680)
Protocol: as §1

CSF1R = CSF1R (Homo sapiens, UniProt P07333)
Protocol: as §1

ROCK1 = ROCK1 (Homo sapiens, UniProt Q13464)
Protocol: as §1

LRRK2 = LRRK2 (Homo sapiens, UniProt Q5S007)
Protocol: as §1

DYRK1A = DYRK1A (Homo sapiens, UniProt Q13627)
Protocol: as §1

ARK5 = target: T6, ARK5 (Homo sapiens, UniProt O60285)
T6 construct: gene NUAK1
Protocol: as §1

PAK3 = PAK3 (Homo sapiens, UniProt O75914)
Protocol: as §1

FLT3(ITD,F691L) = FLT3(ITD,F691L) (Homo sapiens, UniProt P36888, F691L/ITD)
Protocol: as §1

NEK7 = NEK7 (Homo sapiens, UniProt Q8TDX7)
Protocol: as §1

PIM2 = PIM2 (Homo sapiens, UniProt Q9P1W9)
Protocol: as §1

BRK = target: T7, BRK (Homo sapiens, UniProt Q13882)
T7 construct: gene PTK6
Protocol: as §1

KIT(D816V) = KIT(D816V) (Homo sapiens, UniProt P10721, D816V)
Protocol: as §1

ULK1 = ULK1 (Homo sapiens, UniProt O75385)
Protocol: as §1

Chain of MERTK (Q12866 whole entry): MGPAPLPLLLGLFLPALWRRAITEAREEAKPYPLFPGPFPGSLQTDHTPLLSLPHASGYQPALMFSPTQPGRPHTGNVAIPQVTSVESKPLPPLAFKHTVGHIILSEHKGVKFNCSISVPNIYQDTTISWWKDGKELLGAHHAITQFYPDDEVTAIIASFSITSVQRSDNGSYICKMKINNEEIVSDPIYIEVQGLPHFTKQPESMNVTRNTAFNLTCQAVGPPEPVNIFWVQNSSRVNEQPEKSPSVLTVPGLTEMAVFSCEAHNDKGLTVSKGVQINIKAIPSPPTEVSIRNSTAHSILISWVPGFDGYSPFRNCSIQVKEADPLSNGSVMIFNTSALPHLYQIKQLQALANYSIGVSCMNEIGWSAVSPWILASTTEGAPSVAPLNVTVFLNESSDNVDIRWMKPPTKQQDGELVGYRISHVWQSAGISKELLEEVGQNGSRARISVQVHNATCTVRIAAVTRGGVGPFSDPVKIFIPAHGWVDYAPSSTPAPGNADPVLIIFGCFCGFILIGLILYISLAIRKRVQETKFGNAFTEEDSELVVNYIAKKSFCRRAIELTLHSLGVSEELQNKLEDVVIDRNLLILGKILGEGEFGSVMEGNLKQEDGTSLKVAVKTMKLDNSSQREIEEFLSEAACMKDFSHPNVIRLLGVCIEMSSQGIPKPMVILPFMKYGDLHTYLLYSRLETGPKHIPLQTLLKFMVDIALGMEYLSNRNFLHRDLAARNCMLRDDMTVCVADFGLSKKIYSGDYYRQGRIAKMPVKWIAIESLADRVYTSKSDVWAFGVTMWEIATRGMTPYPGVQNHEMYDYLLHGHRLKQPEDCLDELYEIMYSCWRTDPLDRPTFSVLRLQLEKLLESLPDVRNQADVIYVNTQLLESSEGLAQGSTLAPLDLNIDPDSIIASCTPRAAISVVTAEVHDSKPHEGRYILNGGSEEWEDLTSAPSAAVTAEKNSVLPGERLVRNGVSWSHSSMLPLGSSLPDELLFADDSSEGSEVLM
Chain of FLT3(ITD,F691L) (P36888 564-993 F691L): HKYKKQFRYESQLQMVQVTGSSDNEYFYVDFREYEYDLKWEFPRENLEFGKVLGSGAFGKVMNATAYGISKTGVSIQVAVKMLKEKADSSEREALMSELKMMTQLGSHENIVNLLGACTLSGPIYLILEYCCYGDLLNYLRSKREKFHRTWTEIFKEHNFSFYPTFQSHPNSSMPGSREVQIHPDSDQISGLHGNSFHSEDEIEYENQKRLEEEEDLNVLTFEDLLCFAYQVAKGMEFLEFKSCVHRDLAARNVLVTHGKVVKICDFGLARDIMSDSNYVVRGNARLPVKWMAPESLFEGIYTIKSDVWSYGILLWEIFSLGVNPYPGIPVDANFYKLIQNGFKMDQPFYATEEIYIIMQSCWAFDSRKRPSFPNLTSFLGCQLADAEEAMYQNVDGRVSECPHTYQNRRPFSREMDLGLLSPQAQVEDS
T6 sequence (O60285 whole entry): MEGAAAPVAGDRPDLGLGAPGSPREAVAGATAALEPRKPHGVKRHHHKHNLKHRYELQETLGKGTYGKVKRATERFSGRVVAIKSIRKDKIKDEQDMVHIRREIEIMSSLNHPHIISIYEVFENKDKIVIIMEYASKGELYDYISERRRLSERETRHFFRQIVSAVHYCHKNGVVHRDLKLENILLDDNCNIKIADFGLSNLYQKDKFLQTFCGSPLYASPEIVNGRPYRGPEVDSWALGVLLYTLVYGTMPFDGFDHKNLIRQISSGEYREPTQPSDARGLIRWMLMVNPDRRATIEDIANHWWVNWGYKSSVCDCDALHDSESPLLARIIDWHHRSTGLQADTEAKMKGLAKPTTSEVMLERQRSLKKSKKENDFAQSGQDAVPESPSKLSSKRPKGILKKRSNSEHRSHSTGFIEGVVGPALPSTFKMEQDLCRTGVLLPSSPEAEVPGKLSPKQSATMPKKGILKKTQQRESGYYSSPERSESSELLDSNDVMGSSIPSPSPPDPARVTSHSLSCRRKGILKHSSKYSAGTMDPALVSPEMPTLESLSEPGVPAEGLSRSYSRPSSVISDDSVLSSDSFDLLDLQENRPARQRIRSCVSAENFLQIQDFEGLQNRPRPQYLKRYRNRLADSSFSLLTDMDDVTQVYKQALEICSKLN
Chain of PAK3 (O75914 whole entry): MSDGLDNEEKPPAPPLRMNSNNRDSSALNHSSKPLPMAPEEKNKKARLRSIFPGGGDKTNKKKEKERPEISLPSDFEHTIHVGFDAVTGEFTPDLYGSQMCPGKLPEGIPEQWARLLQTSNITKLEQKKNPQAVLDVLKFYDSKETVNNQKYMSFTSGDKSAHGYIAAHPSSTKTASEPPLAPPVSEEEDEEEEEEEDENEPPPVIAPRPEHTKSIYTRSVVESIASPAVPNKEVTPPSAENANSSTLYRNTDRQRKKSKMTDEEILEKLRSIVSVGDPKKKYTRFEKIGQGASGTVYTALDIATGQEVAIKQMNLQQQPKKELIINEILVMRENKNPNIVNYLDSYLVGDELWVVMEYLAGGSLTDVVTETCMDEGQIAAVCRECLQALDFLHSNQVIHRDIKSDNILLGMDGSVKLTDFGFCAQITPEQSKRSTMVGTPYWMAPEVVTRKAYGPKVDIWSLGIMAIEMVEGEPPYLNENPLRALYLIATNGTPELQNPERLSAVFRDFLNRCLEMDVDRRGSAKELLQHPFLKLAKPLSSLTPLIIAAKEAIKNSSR
Chain of KIT(D816V) (P10721 whole entry D816V): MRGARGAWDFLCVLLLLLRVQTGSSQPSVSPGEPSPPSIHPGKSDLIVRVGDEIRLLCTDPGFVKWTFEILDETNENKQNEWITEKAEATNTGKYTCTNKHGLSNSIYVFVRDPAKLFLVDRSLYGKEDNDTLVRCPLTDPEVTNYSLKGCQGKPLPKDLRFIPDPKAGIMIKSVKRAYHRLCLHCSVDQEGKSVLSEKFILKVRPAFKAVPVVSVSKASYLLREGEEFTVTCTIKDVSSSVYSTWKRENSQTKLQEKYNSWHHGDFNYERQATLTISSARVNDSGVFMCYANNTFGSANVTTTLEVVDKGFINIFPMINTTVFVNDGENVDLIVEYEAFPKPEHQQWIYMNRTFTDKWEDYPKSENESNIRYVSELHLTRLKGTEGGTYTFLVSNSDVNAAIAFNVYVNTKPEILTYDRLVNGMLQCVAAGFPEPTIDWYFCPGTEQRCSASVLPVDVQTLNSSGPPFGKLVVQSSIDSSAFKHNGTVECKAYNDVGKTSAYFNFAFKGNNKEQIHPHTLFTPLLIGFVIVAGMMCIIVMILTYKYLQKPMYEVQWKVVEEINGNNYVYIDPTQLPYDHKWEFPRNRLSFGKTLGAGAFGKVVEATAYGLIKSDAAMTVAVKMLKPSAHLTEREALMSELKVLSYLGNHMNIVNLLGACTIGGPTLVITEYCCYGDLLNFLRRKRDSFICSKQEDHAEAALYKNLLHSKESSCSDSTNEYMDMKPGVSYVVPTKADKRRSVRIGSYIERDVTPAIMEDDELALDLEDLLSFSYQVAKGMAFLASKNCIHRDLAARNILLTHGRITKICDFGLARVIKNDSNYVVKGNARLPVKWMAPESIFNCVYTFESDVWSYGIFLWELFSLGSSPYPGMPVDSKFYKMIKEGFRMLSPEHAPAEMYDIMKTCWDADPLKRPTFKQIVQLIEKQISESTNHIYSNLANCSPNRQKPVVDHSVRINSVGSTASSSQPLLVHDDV
T3 sequence (Q32MK0 whole entry): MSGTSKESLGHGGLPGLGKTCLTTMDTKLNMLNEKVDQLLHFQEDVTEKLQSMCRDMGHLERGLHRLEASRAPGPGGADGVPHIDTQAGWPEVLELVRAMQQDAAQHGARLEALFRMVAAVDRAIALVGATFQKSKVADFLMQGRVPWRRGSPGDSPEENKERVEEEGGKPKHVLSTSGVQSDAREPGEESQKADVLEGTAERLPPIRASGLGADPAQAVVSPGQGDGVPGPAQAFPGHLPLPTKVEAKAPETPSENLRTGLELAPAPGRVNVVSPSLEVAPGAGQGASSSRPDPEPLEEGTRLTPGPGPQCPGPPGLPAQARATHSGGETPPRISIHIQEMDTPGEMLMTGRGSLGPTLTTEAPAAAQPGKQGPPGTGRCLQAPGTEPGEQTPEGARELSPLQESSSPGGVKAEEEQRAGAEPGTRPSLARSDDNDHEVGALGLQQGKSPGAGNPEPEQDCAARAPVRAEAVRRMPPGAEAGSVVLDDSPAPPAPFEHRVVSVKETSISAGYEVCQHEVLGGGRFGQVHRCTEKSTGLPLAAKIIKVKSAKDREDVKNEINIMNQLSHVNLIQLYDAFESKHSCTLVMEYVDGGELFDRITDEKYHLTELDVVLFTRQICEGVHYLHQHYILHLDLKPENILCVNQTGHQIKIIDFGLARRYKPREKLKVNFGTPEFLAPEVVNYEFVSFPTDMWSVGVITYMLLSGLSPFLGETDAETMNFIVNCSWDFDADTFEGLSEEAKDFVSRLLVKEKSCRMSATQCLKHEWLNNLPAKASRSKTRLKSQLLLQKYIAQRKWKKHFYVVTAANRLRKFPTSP
Chain of NEK7 (Q8TDX7 whole entry): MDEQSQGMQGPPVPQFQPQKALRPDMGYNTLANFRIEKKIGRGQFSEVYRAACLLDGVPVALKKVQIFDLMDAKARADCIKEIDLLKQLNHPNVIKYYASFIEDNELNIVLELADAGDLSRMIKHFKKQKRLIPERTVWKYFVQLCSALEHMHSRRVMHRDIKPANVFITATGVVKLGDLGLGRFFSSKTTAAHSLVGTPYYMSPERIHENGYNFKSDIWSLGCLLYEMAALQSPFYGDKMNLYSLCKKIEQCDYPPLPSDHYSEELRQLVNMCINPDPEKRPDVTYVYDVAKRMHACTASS

inhibition at 1 µM (MERTK): 0%
inhibition at 1 µM (ERK4): 0%
inhibition at 1 µM [1]: 0%
inhibition at 1 µM (DDR1): 0%
inhibition at 1 µM (EPHA2): 0%
inhibition at 1 µM (MLCK): 4%
inhibition at 1 µM (PIP5K2B): 0%
inhibition at 1 µM (RET(M918T)): 0%
inhibition at 1 µM (PIM3): 3%
inhibition at 1 µM (MUSK): 0%
inhibition at 1 µM [2]: 17%
inhibition at 1 µM (TEC): 13%
inhibition at 1 µM (CSF1R): 0%
inhibition at 1 µM (ROCK1): 34%
inhibition at 1 µM (LRRK2): 0%
inhibition at 1 µM (DYRK1A): 15%
inhibition at 1 µM (ARK5): 0%
inhibition at 1 µM (PAK3): 4%
inhibition at 1 µM (FLT3(ITD,F691L)): 0%
inhibition at 1 µM (NEK7): 2%
inhibition at 1 µM (PIM2): 0%
inhibition at 1 µM (BRK): 0%
inhibition at 1 µM (KIT(D816V)): 4%
inhibition at 1 µM (ULK1): 31%
Compound: CNS(=O)(=O)c1ccc(N(C)C)c(Nc2nc(C)nc3cc(OC)c(OC)cc23)c1 [compound 15, 3-((6,7-dimethoxy-2-methylquinazolin-4-yl)amino)-4-(dimethylamino)-N-methylbenzenesulfonamide]

Source: PMC7180948, “New Insights into 4-Anilinoquinazolines as Inhibitors of Cardiac Troponin I–Interacting Kinase (TNNi3K)” (Molecules, 2020)
